From US20170165361A1, “TREATMENT OF LYSOSOMAL DISORDERS (ANTI-TNF THERAPY)” (Oxford University Innovation Limited, priority 2014, published 2017)
Where “and” joins values, the source holds several entries; their conditions need not be identical. Identical values can stand only once. Entries after “also recorded” stand apart in the source; their conditions may differ.

Columns and labels:
Assay type in all cases: in vivo, mouse
Npc1−/− mice [1] = assay: Survival of Npc1−/− mice (humane end point); settings: for effect on survival / lifespan (in words): Enbrel 200 μg/animal s.c. twice a week, Humira 20 mg/kg three times a week, Remicade 6.25 mg/kg once a week
Procedure: BALB/c mice with a mutation in the NIH allele of the Niemann Pick type Cl gene (NPCnih) were bred as heterozygotes to produce Npc1−/− (BALB/c npcnih/nih) and control genotypes (Pentchev et al., 1980). Breeding and treatment of mice were conducted as described previously (Smith et al., 2009). The humane end point of mice was defined as a loss of 10% weight within a 24 hour time frame. All procedures were conducted according to Animals (Scientific Procedures) Act 1986 under a valid Home Office License.
(§1) Enbrel® (Amgen, USA) was administered via subcutaneous injection (200 μg/animal; Koca et al., 2008) in phosphate-buffered saline (PBS) twice a week starting at […] of age (n=7). Control group animals (n=7) were administered equal volumes of PBS subcutaneously. Humira® was administered 20 mg/kg three times a week (doses converted from human doses based on differential binding coefficients against murine and human TNF) (n=4) and Remicade® 6.25 mg/kg once a week (Deveci et al., 2008) (n=5).
Upon treatment with […] Enbrel® for twice a week starting at 7 weeks of age, Npc1^−/− mice were weighed weekly until humane end point to monitor any possible effects exerted by drug treatment.

[2] = Body weight of Npc1−/− mice, weighed weekly; settings: for effect on body weight (in words): Enbrel 200 μg twice a week, Humira 20 mg/kg three times a week, Remicade 6.25 mg/kg once a week; for body weight relative to initial weight at week 7: p<0.010
Procedure: as §1
Body weights of individual mice were recorded on a weekly basis. Tremor and locomotor analysis of both treated and control groups were conducted as described by Smith et al. (2009). The procedures are briefly detailed as follows:
Upon treatment with 200 μg Enbrel® for twice a week starting at 7 weeks of age, Npc1^−/− mice were weighed weekly until humane end point to monitor any possible effects exerted by drug treatment.

Npc1−/− mice [3] = assay: Open field rearing, manual count over 5 minutes (rearing and centre rearing); settings: for centre rearing count (no front-limb support) / rearing count (front limb support on side walls): 5 min; for centre rearing count (no front-limb support): Humira 20 mg/kg three times a week; for rearing activity vs. controls (in words): FIG. 4; for rearing count (front limb support on side walls): Remicade 6.25 mg/kg once a week
Procedure: as §1
(§2) Spontaneous activity of each mouse was recorded weekly using both an automated activity monitor (AmLogger; Linton Instrumentation, UK) and manual counting (NPC mice have a jumping phenotype in late stages of disease that can be scored as rears in the automated system so manual counts were included for this reason). The activity monitor comprises an array of infrared beams to determine the activity and motility of the subject animal. After 5-minute acclimatization in the room, each mouse was placed in the ‘open-field’ (a plasticbox measuring 45×25×12 cm) with home cage bedding to be recorded for 5 minutes. A similar setup was used for the open field rearing study, where the number of times the mouse reared on its hind legs (either against the cage wall “rearing” or without support “centre rearing”) was counted manually for 5 minutes.
Activity levels of the mice (Npc1^−/−) were recorded and classified by either “rearing” (FIG. 4A; rearing sustained by front limb support on side walls of the open-field box) or “centre rearing” (FIG. 4B; rearing with no front-limb support). […] In particular, rearing activity was maintained in Enbrel®-treated mice until 10 weeks whilst mice in the control group were no longer able to rear without front limb support (1.71 rears vs. 0.00 rears; p=0.01).

Npc1−/− mice [4] = assay: Gait analysis, CatWalk single paw parameters; settings: Enbrel treatment, FIG. 7
Procedure: as §1
The CatWalk™ system (Noldus Information Technology, the Netherlands) was used for monitoring changes in movement patterns as indicative of any motor complications and to assess any gait improvement in response to treatment. Animals were subjected to CatWalk™ analysis biweekly, where a minimum of three ‘runs’ were collected per animal. The data collected were subsequently examined by CatWalk™ XT 10.0 software to produce a total of 177 inter-paw and intra-paw comparison parameters.
For this reason, it can be assumed that single paw parameters would reveal more sensitive indications of treatment benefits in the short time frame allowed by this acute disease model.

Npc1−/− mice [5] = assay: Locomotor activity, AmLogger automated activity monitor; settings: Enbrel 200 μg twice a week
Procedure: as §1, §2

[6] = 9 weeks, mean±SEM, Enbrel 200 μg twice a week, control 0.429±0.30
[7] = 10 weeks, Enbrel 200 μg twice a week, control 0.00

Substance	effect on survival / lifespan (in words) (Npc1−/− mice [1])	effect on body weight (in words) [2]	centre rearing count (no front-limb support) (Npc1−/− mice [3]; 8 weeks, mean±SEM, vs. 2.00±1.35, p=0.033)	centre rearing count (no front-limb support) (Npc1−/− mice [3]; [6])	centre rearing count (no front-limb support) (Npc1−/− mice [3]; [7])	centre rearing vs. controls and other treatments (in words) (Npc1−/− mice [3]; open field, FIG. 4B)	single paw gait parameters (in words) (Npc1−/− mice [4])	time spent in rearing (Npc1−/− mice [5]; 8 weeks, 5 min recording, vs. 3.29±1.775, p=0.0447)	time spent in an active state (Npc1−/− mice [5]; 9 weeks, 5 min recording, vs. 143.43±17.625, p=0.0497)	activity parameters vs. vehicle treated control (in words) (Npc1−/− mice [5]; FIG. 6)	lifespan (Npc1−/− mice [1]; Enbrel 200 μg/animal twice a week starting at 7 weeks of age, vs. 11.72±0.59 weeks, p=0.4840)	body weight relative to initial weight at 7 weeks ([2]; 200 μg Enbrel twice a week, time point not stated, vs. 87.46%, p=0.7270)	rearing activity vs. controls (in words) (Npc1−/− mice [3]; open field)	body weight relative to initial weight at week 7 ([2]; week 8, Remicade 6.25 mg/kg once a week, vs. 101.31%)	body weight relative to initial weight at week 7 ([2]; week 9, Remicade 6.25 mg/kg once a week, vs. 97.16%)	rearing count (front limb support on side walls) (Npc1−/− mice [3]; 8 weeks, mean±SEM, vs. 2.86±1.03, p=0.034)	rearing count (front limb support on side walls) (Npc1−/− mice [3]; 9 weeks, mean±SEM, vs. 2.00±2.52, p=0.039)
Adalimumab [Humira]	Neither did Humira® or Remicade® impact mice survival	did not impact mice weight	10.00±3.58 rears	8.25±2.84 rears	0.00 rears	more effective amongst the other treatments starting from 8 weeks; also recorded: sustained rearing activity beyond all control groups at later time points											
Etanercept [Enbrel]	did not cause any significant difference in lifespan	did not cause any significant difference in body weights		1.71±0.61 rears	1.71 rears and 1.71±0.57 rears		beneficial effects	16.86 ± 5.79 s	208.14 ± 23.85 s	displayed higher activity levels; also recorded: induced higher levels of activity parameters	11.26±0.09 weeks	89.03%	displayed a higher level of rearing activity than control mice				
Infliximab [Remicade]	Neither did Humira® or Remicade® impact mice survival	caused significant weight loss at weeks 8 and 9											sustained level of rearing activity starting from 7 weeks, higher than the two control groups (untreated and s.c. injected) and maintained up to 12 weeks	89.11%	80.84%	7.80±1.71 rears	7.20±2.27 rears
